One test has as its system S. aureus VRS-2. The test is described as follows: VRSA thigh infection model in neutropenic mice. It counts as in vivo, mouse. The note with it: 100 mg/kg IP BID q12h; for bacterial count reduction in thigh tissue relative to the vehicle control group: 26 h post-infection, p<0.05. The method, then: (§1) FIG. 8 is a plot comparing the efficacy of linezolid, Compound 4 (AV-0273), and Compound 8 (AV-0267) in the S. aureus VRS-2 thigh infection model, CFU/g thigh. Test animals were rendered neutropenic with cyclophosphamide administration, 150 mg/kg on Day −4 then 100 mg/kg on Day −1 prior to infection on Day 0. On Day 0, animals were intramuscularly inoculated with 8.4×10^4 CFU/mouse (0.1 mL/animal) of the S. aureus VRS-2 strain. The vehicle and the test articles, Compound 4 (AV-0273) and Compound 8 (AV-0267), both at 100 mg/kg, were each intraperitoneally (IP) administered twice with a 12 h interval (BID q12h) at 2 and 14 h after infection. The reference standard, linezolid at 50 mg/kg, was orally (PO) administered BID q12 h starting at 2 h post-infection. Animals were sacrificed at 2 or 26 h post-infection, and the thigh tissues were harvested and weighed from each of the test animals. The bacterial counts (CFU/g thigh) of thigh tissue homogenates were measured.
as §1, with “FIG. 9” for “FIG. 8”, “of linezolid” for “of linezolid,”, “CFU/g thigh, change in bacterial counts relative to baseline count at 26h post-infection. Data represent the change in bacterial counts in thigh tissue following test article treatment relative to the initial 2 h CFU/g thigh or CFU/thigh at the time of dosing (baseline counts).” for “CFU/g thigh.”, “(BID q12 h)” for “(BID q12h)”, “(CFU/g thigh and CFU/thigh)” for “(CFU/g thigh)”, “were compared.” for “were measured.”
Example vancomycin-2,3-pyrrolidinediones conjugates were evaluated using an in vivo tissue infection model with vancomycin resistant MRSA:
Animal model: Murine thigh infection
Bacteria: VRSA (VRS-2). Gram Positive, Staphylococcus aureus (VRSA, VRS-2), Mouse Infected Thigh Model. VRS-2 is VanA producing SCC Mec II st5 train.
Vancomycin conjugates dose: 100 mg/Kg intraperitoneally (IP).
Application: This model assesses the antimicrobial efficacy of test articles in a tissue infection model with vancomycin resistant MRSA. Microbial counts are measured. […]

In a further test the test system is VSE 2127. The test is described as follows: MIC against VSE 2127. The format is cell-based, Enterococcus spp.
Another test has as its system MSSA ATCC 25923 biofilm. Nature of the test: Viable bacteria in supernatant and biofilm after single treatment of MSSA biofilm. The format is cell-based, Staphylococcus aureus. The source says: FIG. 5 is a plot showing the effect of a single dose of different concentrations of Compound 4 on the concentration of bacteria in the supernatant over a methicillin-susceptible Staphylococcus aureus (MSSA ATCC 25923). FIG. 6 is a plot showing the time-dependent biofilm population following treatment of a methicillin-susceptible Staphylococcus aureus (MSSA ATCC 25923) biofilm with Compound 4. […] FIG. 5 is a plot showing the effect of a single dose of different concentrations of Compound 4 on the concentration of bacteria in the supernatant over a methicillin-susceptible Staphylococcus aureus (MSSA ATCC 25923). […] FIG. 6 is a plot showing the time-dependent biofilm population following treatment of a methicillin-susceptible Staphylococcus aureus (MSSA ATCC 25923) biofilm with Compound 4.

For a further test, the system named is vanB VRE 51299. The test is described as follows: MIC against vanB VRE 51299. The format is cell-based, Enterococcus spp. The note with it: Enterococcus.
Another test has as its system vanC-1 VRE 49608. Nature of the test: MIC against vanC-1 VRE 49608. The format is cell-based, Enterococcus spp. The note with it: Enterococcus.
The test system of the next test is vanA VRE 700221. The test is described as follows: MIC against vanA VRE 700221. It counts as cell-based, Enterococcus spp. The note with it: Enterococcus.
The subject of the next test is S. aureus (strain HG003). Nature of the test: Time-dependent killing of S. aureus (strain HG003). It counts as cell-based, Staphylococcus aureus. The note with it: S. aureus strain HG003, liquid culture, single inoculation, FIG. 2. From the text:
FIG. 2 is a plot showing the time-dependent killing of S. aureus (strain HG003) by vancomycin and an example vancomycin-2-3-pyrrolidinedione conjugate (Compound 4).
With these initial results in hand, the time-dependent killing of bacterial strains by the vancomycin-2-3-pyrrolidinedione conjugates was investigated. FIG. 2 is a plot showing the time-dependent killing of S. aureus (strain HG003) by vancomycin and an example vancomycin-2-3-pyrrolidinedione conjugate (Compound 4, also referred to as AV-273). FIG. 3 is a plot showing the time-dependent killing of MRSA (strain LAC) by vancomycin and an example vancomycin-2-3-pyrrolidinedione conjugate (Compound 4).

Another test deals with VRSA. The note with it: S. aureus VRS-2; cited from earlier work.

Here are results for 3 molecules from patent publication US20250312258A1, “2,3-PYRROLIDINEDIONE CONJUGATES AND METHODS OF USING THEREOF” (North Carolina State University, priority 2022, published 2025).

One may read the MIC as the lowest concentration found to suppress growth.

Converted amounts (≈) assume the structure as drawn. Like-named read-outs stand apart in the source and are kept apart here.

On to `CCC1C(c2ccc(C(F)(F)F)cc2)=C(O)C(=O)N1C1CCC(NC)CC1` (stereo not shown) [Compound 4], for which the “bacterial count reduction in thigh tissue relative to the vehicle control group” value in the test with S. aureus VRS-2 turned out to be 100%. Moreover, the “effect relative to the baseline control” value in the test on S. aureus VRS-2 (FIG. 9) is recorded as “bacteriostatic effect”. Besides, the MIC in the test with VSE 2127 (Enterococcus; read-out: MIC (VSE 2127)) was 0.5 µg/mL (≈ 1.31 µM); in the test with vanB VRE 51299 (VRE, the 2nd table, read-out: MIC (vanB VRE 51299)), 2 µg/mL (≈ 5.23 µM); in the test on vanB VRE 51299 (vanB VRE 51299, the 3rd table, read-out: MIC) it was 2 µg/mL (≈ 5.23 µM); with vanC-1 VRE 49608 (VRE, the 2nd table, read-out: MIC (vanC-1 VRE 49608)) it was 0.5 µg/mL (≈ 1.31 µM); in the test on vanC-1 VRE 49608 (vanC-1 VRE 49608, the 3rd table, read-out: MIC), 0.5 µg/mL (≈ 1.31 µM); in the test with vanA VRE 700221 (VRE, the 2nd table, read-out: MIC (vanA VRE 700221)), 8 µg/mL (≈ 20.9 µM). In the test with vanA VRE 700221 (vanA VRE 700221, the 3rd table, read-out: MIC), the minimal inhibitory concentration (MIC) is 8 µg/mL (≈ 20.9 µM). Besides, the “single dose at which no viable bacterial cells were detected in the treatment supernatant” value with MSSA ATCC 25923 biofilm (MSSA ATCC 25923, detection limit 10^2, FIG. 5) was “at least 16 μg/mL”. The “viable biofilm-embedded bacterial cells” value in the test with MSSA ATCC 25923 biofilm (MSSA ATCC 25923 biofilm, 24 hours after a single treatment at twice the MBEC, FIG. 6) is recorded as “no viable biofilm-embedded bacterial cells were detected”. Moreover, the time-dependent killing profile entry in the test with S. aureus (strain HG003) is “roughly matched vancomycin at the same concentration”.

On to `CCC1C(c2ccc(C(F)(F)F)cc2)=C(O)C(=O)N1CCCNCCCCNC` (stereo not shown) [Compound 8], for which, in the test on S. aureus VRS-2, the “bacterial count reduction in thigh tissue relative to the vehicle control group” value amounted to 100%.

As to `CN[C@H](CC(C)C)C(=O)N[C@H]1C(=O)N[C@@H](CC(N)=O)C(=O)N[C@H]2C(=O)N[C@H]3C(=O)N[C@H](C(=O)N[C@H](C(=O)O)c4cc(O)cc(O)c4-c4cc3ccc4O)[C@H](O)c3ccc(c(Cl)c3)Oc3cc2cc(c3O[C@@H]2O[C@H](CO)[C@@H](O)[C@H](O)[C@H]2O[C@H]2C[C@](C)(N)[C@H](O)[C@H](C)O2)Oc2ccc(cc2Cl)[C@H]1O` [Vancomycin, vancomycin, reference compound], the MIC was 2 µg/mL (≈ 1.38 µM) with VSE 2127 (Enterococcus, read-out: MIC (VSE 2127)); 256 µg/mL (≈ 177 µM) with vanB VRE 51299 (VRE); 256 µg/mL (≈ 177 µM) with vanB VRE 51299 (VRE, read-out: MIC (vanB VRE 51299)); 32 µg/mL (≈ 22.1 µM) in the test on vanC-1 VRE 49608 (VRE); 32 µg/mL (≈ 22.1 µM) with vanC-1 VRE 49608 (VRE, read-out: MIC (vanC-1 VRE 49608)); 512 µg/mL (≈ 353 µM) in the test on vanA VRE 700221 (VRE). Besides, the minimum inhibitory concentration (MIC) with vanA VRE 700221 (VRE, read-out: MIC (vanA VRE 700221)) is 512 µg/mL (≈ 353 µM). Further, the MIC of vancomycin for VRS-2 (strain description) in the test on VRSA was more than 64 µg/mL. For the same molecule, in the test on VRSA, the “antibiotic resistance profile of VRS-2: vancomycin” value is more than 64 µg/mL.
